Where “and” joins values, the source holds several entries; their conditions need not be identical. Equal values may be shown once.
How the values were obtained:
serum PTH = assay: 5/6 nephrectomized rats study: serum PTH level; assay type: in vivo, rat; conditions: 5/6 Nx rats; for Serum PTH levels after the first administration, Mean: group mean
Procedure: Rats were 5/6 nephrectomized in two steps. Under anesthesia (pentobarbital, 50 mg/kg; intraperitoneally) and analgesia (lidocaine; topically), two-thirds of the left kidney was removed, and then the right kidney was removed after a seven-day interval. Seven days after the completion of 5/6 nephrectomy, the FR-2 diet was changed to a high-phosphate diet, containing 0.6% calcium and 0.9% phosphate (Oriental Yeast Co., Ltd., Tokyo, Japan). Approximately 2 weeks after the initiation of the high-phosphate diet, the 5/6 Nx rats were divided into five groups (n = 12/group) matched in terms of their body weight as well as their blood urea nitrogen (BUN) and serum PTH and calcium levels.
(§1) In the single-dose study, blood samples were collected from the tail vein before and at 0.5, 2, 4, 8, 24, 48, and 72 h after the oral administration of vehicle (0.5% methyl cellulose solution) or evocalcet (0.03, 0.1, 0.3, or 1 mg/kg). In the repeated-dose study, vehicle or evocalcet was orally administered to the respective groups once daily for 14 days. Blood samples were obtained from the tail vein before the first administration and after the seventh and last administrations.
The serum PTH level was measured using a Rat Intact PTH ELISA kit (Immutopics, Inc., San Clemente, CA). The serum calcium, phosphate and BUN levels were measured using an auto analyzer (Hitachi High-Technologies Corporation., Tokyo, Japan) or the following test kits: the Calcium E-test WAKO, the Phospha C-test WAKO, or the Blood Urea nitrogen B-test WAKO (Wako Pure Chemical Industries, Ltd., Osaka, Japan).

[1] = Plasma concentrations of evocalcet after repeated oral administration to 5/6 nephrectomized rats; assay type: in vivo, rat; conditions: 5/6 Nx rats
Procedure: as §1
The plasma concentrations of evocalcet were determined after single or repeated oral administration in both normal and 5/6 Nx rats. The pharmacokinetic (PK) parameters of the rat plasma concentrations were calculated individually using Phoenix WinNonlin 6.2, a PK analysis software program (Pharsight Corporation, Sunnyvale, CA).

CYP2D6 = CYP2D6 (Homo sapiens, UniProt P10635); assay: CYP inhibition assay in human liver microsomes; assay type: in vitro ADME; conditions: no pre-incubation
CYP2D6, sequence (P10635 whole entry): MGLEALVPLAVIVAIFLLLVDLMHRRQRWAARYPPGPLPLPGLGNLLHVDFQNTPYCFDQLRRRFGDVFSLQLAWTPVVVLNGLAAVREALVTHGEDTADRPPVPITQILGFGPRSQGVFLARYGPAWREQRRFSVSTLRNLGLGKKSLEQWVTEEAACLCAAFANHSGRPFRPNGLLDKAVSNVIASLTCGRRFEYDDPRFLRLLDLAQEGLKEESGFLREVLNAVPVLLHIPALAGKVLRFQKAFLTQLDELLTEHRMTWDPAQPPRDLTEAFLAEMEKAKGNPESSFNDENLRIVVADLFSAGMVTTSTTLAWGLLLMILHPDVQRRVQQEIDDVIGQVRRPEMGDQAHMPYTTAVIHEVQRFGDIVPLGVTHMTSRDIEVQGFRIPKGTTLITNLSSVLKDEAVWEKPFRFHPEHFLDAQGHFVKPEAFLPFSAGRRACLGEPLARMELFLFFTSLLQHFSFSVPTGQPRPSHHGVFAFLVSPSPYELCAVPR
Procedure: (§2) The direct inhibition of evocalcet (0.15~50 μM, 6-point concentrations) against the specific activities of 9 CYP isozymes (CYP1A2, CYP2A6, CYP2B6, CYP2C8, CYP2C9, CYP2C19, CYP2D6, CYP2E1, and CYP3A4/5) was examined in human liver microsomes without the pre-incubation of evocalcet, in the presence of the NADPH-generating system. Each CYP substrate was incubated with human liver microsomes in the absence or presence of evocalcet, and the inhibition of evocalcet for each CYP isozyme was measured.

CYP3A4/5 = assay: CYP inhibition assay in human liver microsomes; assay type: in vitro ADME; conditions: no pre-incubation, read-out: IC50 direct inhibition of CYP3A4/5
Procedure: as §2

C[C@@H](N[C@H]1CCN(c2ccc(CC(=O)O)cc2)C1)c1cccc2ccccc12 [evocalcet]
Serum PTH levels before (day 0) and 24 h after evocalcet administration (serum PTH; 1 mg/kg, day 14 (24 h), individual rats, 1 mg/kg): 671.158 and 155.818 and 37.909
Serum PTH levels after the first administration, Mean (serum PTH; 1 mg/kg, time 0 h): 2488.277
Serum PTH levels after the first administration, Mean (serum PTH; 1 mg/kg, time 0.5 h): 86.013
Serum PTH levels after the first administration, Mean (serum PTH; 1 mg/kg, time 2 h): 672.764
Serum PTH levels after the first administration, Mean (serum PTH; 1 mg/kg, time 4 h): 302.274
Serum PTH levels after the first administration, Mean (serum PTH; 1 mg/kg, time 8 h): 788.660
Serum PTH levels after the first administration, Mean (serum PTH; 1 mg/kg, time 24 h): 864.186
Doses that steadily decreased the serum PTH level (serum PTH; once daily oral for 14 days, 24 h after administration on days 7 and 14): ≥ 0.3 mg/kg
Doses that significantly decreased the serum PTH level (serum PTH; single oral dose, vs vehicle group): ≥ 0.1 mg/kg
Plasma concentration ([1]; repeated oral 0.03 mg/kg, Day 1, 0.5 h, individual rats, 0.03 mg/kg): 36.58 ng/mL and 70.85 ng/mL and 82.54 ng/mL and 69.68 ng/mL and 77.69 ng/mL and 41.93 ng/mL and 76.13 ng/mL
Plasma concentration ([1]; repeated oral 0.03 mg/kg, Day 1, 0.5 h, mean): 64.96 ng/mL
Plasma concentration ([1]; repeated oral 0.03 mg/kg, Day 1, 24 h, individual rats, 0.03 mg/kg): 1.641 ng/mL and 1.374 ng/mL and 5.810 ng/mL and 8.969 ng/mL and 1.766 ng/mL and 7.813 ng/mL and 3.603 ng/mL
Plasma concentration ([1]; repeated oral 0.03 mg/kg, Day 1, 24 h, mean): 4.696 ng/mL
Plasma concentration ([1]; repeated oral 0.03 mg/kg, Day 7, 24 h, individual rats, 0.03 mg/kg): 2.975 ng/mL and 2.144 ng/mL and 14.97 ng/mL and 24.57 ng/mL and 7.857 ng/mL and 2.119 ng/mL and 5.014 ng/mL
Plasma concentration ([1]; repeated oral 0.03 mg/kg, Day 7, 24 h, mean): 6.838 ng/mL
Plasma concentration ([1]; repeated oral 0.03 mg/kg, Day 14, 0.5 h, individual rats, 0.03 mg/kg): 19.34 ng/mL and 56.51 ng/mL and 53.07 ng/mL and 90.16 ng/mL and 75.39 ng/mL and 23.11 ng/mL and 72.02 ng/mL
Plasma concentration ([1]; repeated oral 0.03 mg/kg, Day 14, 0.5 h, mean): 51.46 ng/mL
Plasma concentration ([1]; repeated oral 0.03 mg/kg, Day 14, 24 h, individual rats, 0.03 mg/kg): 3.012 ng/mL and 3.971 ng/mL and 9.010 ng/mL and 15.92 ng/mL and 10.68 ng/mL and 0.6289 ng/mL and 6.008 ng/mL
Plasma concentration ([1]; repeated oral 0.03 mg/kg, Day 14, 24 h, mean): 9.081 ng/mL
Plasma concentration ([1]; repeated oral 0.1 mg/kg, Day 1, 0.5 h, individual rats, 0.1 mg/kg): 202.3 ng/mL and 254.1 ng/mL and 209.7 ng/mL and 142.8 ng/mL and 254.2 ng/mL and 143.9 ng/mL and 56.83 ng/mL and 269.5 ng/mL
Plasma concentration ([1]; repeated oral 0.1 mg/kg, Day 1, 24 h, individual rats, 0.1 mg/kg): 15.16 ng/mL and 12.10 ng/mL and 8.688 ng/mL and 14.16 ng/mL and 21.79 ng/mL and 16.89 ng/mL and 67.75 ng/mL and 32.61 ng/mL
Plasma concentration ([1]; repeated oral 0.1 mg/kg, Day 7, 24 h, individual rats, 0.1 mg/kg): 58.71 ng/mL and 48.75 ng/mL and 30.51 ng/mL and 37.24 ng/mL and 78.95 ng/mL and 69.59 ng/mL and 161.4 ng/mL and 61.03 ng/mL
Plasma concentration ([1]; repeated oral 0.1 mg/kg, Day 14, 0.5 h, individual rats, 0.1 mg/kg): 127.4 ng/mL and 39.41 ng/mL and 36.70 ng/mL and 54.83 ng/mL and 93.73 ng/mL and 108.2 ng/mL and 128.5 ng/mL and 174.0 ng/mL
Plasma concentration ([1]; repeated oral 0.1 mg/kg, Day 14, 24 h, individual rats, 0.1 mg/kg): 5.812 ng/mL and 5.988 ng/mL and 9.558 ng/mL and 3.499 ng/mL and 32.22 ng/mL and 49.20 ng/mL and 104.7 ng/mL and 11.96 ng/mL
Plasma concentration ([1]; 0.03 mg/kg oral once daily, Day 1, 0.5 h, mean, n = 12): 64.96 ng/mL
Plasma concentration ([1]; 0.03 mg/kg oral once daily, Day 1, 24 h, mean, n = 12): 4.696 ng/mL
Plasma concentration ([1]; 0.03 mg/kg oral once daily, Day 7, 24 h, mean, n = 12): 6.838 ng/mL
Plasma concentration ([1]; 0.03 mg/kg oral once daily, Day 14, 0.5 h, mean, n = 12): 51.46 ng/mL
Plasma concentration ([1]; 0.03 mg/kg oral once daily, Day 14, 24 h, mean, n = 12): 9.081 ng/mL
Plasma concentration ([1]; 0.1 mg/kg oral once daily, Day 1, 0.5 h, mean, n = 12): 204.2 ng/mL
Plasma concentration ([1]; 0.1 mg/kg oral once daily, Day 1, 24 h, mean, n = 12): 21.78 ng/mL
Plasma concentration ([1]; 0.1 mg/kg oral once daily, Day 7, 24 h, mean, n = 12): 53.46 ng/mL
Plasma concentration ([1]; 0.1 mg/kg oral once daily, Day 14, 0.5 h, mean, n = 12): 133.8 ng/mL
Plasma concentration ([1]; 0.1 mg/kg oral once daily, Day 14, 24 h, mean, n = 12): 29.24 ng/mL
Plasma concentration ([1]; 0.3 mg/kg oral once daily, Day 1, 0.5 h, mean, n = 12): 545.5 ng/mL
Plasma concentration ([1]; 0.3 mg/kg oral once daily, Day 1, 24 h, mean, n = 12): 90.48 ng/mL
Plasma concentration ([1]; 0.3 mg/kg oral once daily, Day 7, 24 h, mean, n = 12): 190.6 ng/mL
Plasma concentration ([1]; 0.3 mg/kg oral once daily, Day 14, 0.5 h, mean, n = 12): 686.9 ng/mL
Plasma concentration ([1]; 0.3 mg/kg oral once daily, Day 14, 24 h, mean, n = 12): 102.1 ng/mL
Plasma concentration ([1]; 1 mg/kg oral once daily, Day 1, 0.5 h, mean, n = 12): 1635 ng/mL
Plasma concentration ([1]; 1 mg/kg oral once daily, Day 1, 24 h, mean, n = 12): 285.7 ng/mL
Plasma concentration ([1]; 1 mg/kg oral once daily, Day 7, 24 h, mean, n = 12): 557.2 ng/mL
Plasma concentration ([1]; 1 mg/kg oral once daily, Day 14, 0.5 h, mean, n = 12): 1769 ng/mL
Plasma concentration ([1]; 1 mg/kg oral once daily, Day 14, 24 h, mean, n = 12): 490.6 ng/mL
CYP2D6 activity in the presence of evocalcet (CYP2D6; 50 μM evocalcet, direct inhibition): 50.7%
IC50 (CYP2D6; read-out: IC50 direct inhibition of CYP2D6): > 50 µM
IC50 (CYP3A4/5): > 50 µM

Reference: PMC5882164, “A novel calcimimetic agent, evocalcet (MT-4580/KHK7580), suppresses the parathyroid cell function with little effect on the gastrointestinal tract or CYP isozymes in vivo and in vitro” (PLoS ONE, 2018)
